Laboratory results from PMC8955307, “Nucleobase-Derived Nitrones: Synthesis and Antioxidant and Neuroprotective Activities in an In Vitro Model of Ischemia–Reperfusion” (International Journal of Molecular Sciences, 2022).

Key:
[1] = biological target: T1, Soybean Lipoxygenase (SLOX) (Glycine max, UniProt P08170); test: In vitro inhibition of soybean lipoxygenase (UV absorbance-based enzyme assay); format: biochemical; conditions: soybean LOX, sodium linoleate substrate, pH 9
T1 sequence (P08170 1-839): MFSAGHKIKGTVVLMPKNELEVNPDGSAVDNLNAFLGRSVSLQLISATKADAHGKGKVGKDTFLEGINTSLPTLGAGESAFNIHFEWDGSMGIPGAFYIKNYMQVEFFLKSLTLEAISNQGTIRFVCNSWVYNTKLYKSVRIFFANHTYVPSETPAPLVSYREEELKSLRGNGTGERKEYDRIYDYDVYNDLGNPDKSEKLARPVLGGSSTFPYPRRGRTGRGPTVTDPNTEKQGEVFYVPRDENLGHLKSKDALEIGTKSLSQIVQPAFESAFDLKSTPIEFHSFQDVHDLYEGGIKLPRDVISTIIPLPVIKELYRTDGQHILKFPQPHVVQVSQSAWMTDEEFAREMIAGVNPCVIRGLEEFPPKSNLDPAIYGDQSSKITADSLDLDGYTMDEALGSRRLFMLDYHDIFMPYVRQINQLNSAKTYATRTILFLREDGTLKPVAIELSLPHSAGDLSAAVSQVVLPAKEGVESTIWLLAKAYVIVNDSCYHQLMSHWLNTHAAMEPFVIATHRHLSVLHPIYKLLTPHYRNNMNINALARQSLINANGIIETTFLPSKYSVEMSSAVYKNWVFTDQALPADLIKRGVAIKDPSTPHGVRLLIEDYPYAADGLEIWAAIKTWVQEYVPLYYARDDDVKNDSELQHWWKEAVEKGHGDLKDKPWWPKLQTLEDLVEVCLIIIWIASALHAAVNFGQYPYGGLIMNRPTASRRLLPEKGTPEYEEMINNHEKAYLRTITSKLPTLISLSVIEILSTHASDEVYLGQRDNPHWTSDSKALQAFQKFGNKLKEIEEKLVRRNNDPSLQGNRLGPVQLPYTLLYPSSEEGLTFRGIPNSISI
Method: The experimental conditions followed our previously reported protocol. Sodium linoleate was used as a substrate (0.1 mM) with 0.2 mL of the saline solution of SLOX (1/9 × 10^−4 w/v) in the Tris buffer pH 9.

[2] = Reducing ability: interaction with DPPH; conditions: tested at 100 µM
[3] = test system: human neuroblastoma SH-SY5Y cells; test: Superoxide radical production (DHE fluorescence) after OGD and 3 h OGR (IR); format: cell-based; conditions: Homo sapiens, OGD + 3 h OGR (IR); for EC50: compounds 0.1 to 1000 μM, read-out: Antioxidant Activity EC50 ± SEM (superoxide production); for Emax: read-out: Maximal Activity mean±SEM (antioxidant)
Method: A density of 2–2.5 × 10^5 SHSY5Y cells/well was used to seed in 48-well plates to quantify superioxide anion formation. Firstly, cultured cells were exposed to OGD treatment for 3–4 h or maintained in normoxic conditions (controls). Thereafter, medium was replaced with oxygenated Dulbecco’s: Ham’s F12 medium with glucose, 1% Antibiotic-Antimycotic, 1% Gentamicin and 10% FCS. Cells were incubated in the absence (controls) or presence of indicated concentrations of the compounds of study, at 37 °C for 3 h. […] For every condition, the linear regression of fluorescence data (expressed in arbitrary fluorescence units, AFU) was calculated, and the slopes (a) of the best fitting lines (y = ax) were considered as an index of superoxide production, as described previously.

[4] = ABTS radical cation decolorization assay; conditions: tested at 100 µM
Method: Approximately 10 µL of the tested compounds in DMSO (100 µM final concentration) were mixed with 200 µL of ABTS∙^+ (100 mM) and 790 µL absolute ethanol. The absorbance value was recorded 1 min after mixing at 734 nm and compared to Trolox.

[5] = Hydroxyl radical scavenging (competition with DMSO); conditions: tested at 100 µM
Method: The competition of the tested nitrones (100 µM) with DMSO (33 mM) in the phosphate buffer (50 mM), pH 7.4, was used. The hydroxyl radicals were generated by the Fe^3+/ascorbic acid system (EDTA 0.1 mM, Fe^3+ 167 µM, ascorbic acid 10 mM), and the samples were incubated at 37 °C/30 min. A 17% w/v solution of CCl3CO2H was used to stop the radical propagation. The percentage scavenging activity was compared to Trolox used as a reference.

[6] = test system: SH-SY5Y human neuroblastoma cells; test: Neuroprotection: cell viability (XTT metabolic activity) after OGD (4 h) followed by OGR (24 h) (IR); format: cell-based; conditions: Homo sapiens, OGD 4 h + OGR 24 h (IR); for Emax: 24 h, read-out: Maximal Activity mean±SEM (neuroprotection); for EC50: compounds 0.01 μM to 1 mM, read-out: Neuroprotection EC50 ± SEM
Method: Cultures of human neuroblastoma cells from line SH-SY5Y were performed in flasks containing Dulbecco’s: Ham’s F12, 1:1 [v/v] composed of 0.5 mM sodium pyruvate, 2.5 mM GlutaMAX™; GIBCO, Life Technologies, Madrid (Spain), 3.15 mg/mL glucose, 1% Antibiotic-Antimycotic (100 ui/mL penicillin, […] streptomycin, and 0.25 mg amphotericin B), 1% Gentamicin 15 mg/mL (Sigma-Aldrich, Madrid, Spain) and 10% Fetal Calf Serum (FCS) (Gibco; Life Technologies, Madrid, Spain) as as described. For each experiment, neuroblastoma cells were digested partially with 0.25% trypsin-EDTA and seeded in plates of 96 or 48 wells with a density of 0.5–1 or 2–2.5 × 10^5 cells/well, respectively, depending on the assay. At 80% confluence of the seeded cells, medium was renewed adding 0.1–1000 µM of the compounds tested.
(§1) To induce experimental ischemia, and the sub-consequent cellular damage, the neuroblastoma cultures underwent OGD for 3–4 h, maintained in a glucose-free Dulbecco’s medium inside an anaerobic chamber in the presence of a gas mixture of 95% N2/5% CO2 and humidified at 37 °C at a constant pressure of 0.15 bar. After the OGD period (4 h), medium was substituted by oxygenated 10% FCS-containing medium, and cells were incubated in conditions of normoxia for 24 h to recovery (R24h). The compounds used in the neuroprotection studies: nitrones 9a–i, α-phenyl-N-tert-butyl nitrone (PBN) and N-acetyl-L-cysteine (NAC) (0.01 μM−1000 µM), were added at the beginning of R24h as described. Concurrently, controls in the absence of the OGD procedure were performed by maintaining these cells with Dulbecco’s medium including glucose for 3–4 h in an incubator in conditions of normoxia during the OGD period; thereafter, the medium was changed, and the cells (in the presence or absence of the different study compounds) were returned to the incubator for 24 h of recovery, as described. In addition, experiments including the same amounts of vehicle (final concentration < 1% dimethyl sulfoxide) were performed, serving as controls. The effects of nitrones 9a–g were analyzed three-five times independently using different culture batches, and each experiment was carried out in triplicate.
(§2) Cell viability measurements were carried out in human neuroblastoma cells SHSY5Y using 96-well culture plates, containing about 0.5–1 × 10^5 cells/well, after the OGD-R24h or control treatment including 0.01–1000 µM of the different testing compounds (nitrones 9a–g, PBN, and NAC), utilizing the Cell Proliferation Kit II (XTT), Sigma Aldrich, Madrid, Spain, which determines the culture’s metabolic capacity, as described in [21, 22]. XTT solution (0.3 mg/mL final concentration) was added to the seeded cells, incubated for 2 h at 37 °C with 5% CO2 and 95% air (v/v), and a spectrophotometer reader (Biotek Power-Wave XS microplate-reader (BioTek Instruments, Madrid, Spain) was used to register the absorbance at 450 nm (reference 650 nm) of the soluble formazan product generated. 100% viability was set by control normoxic cells treated with medium only, and control cells were added 0.001–1% DMSO in every assay.

[7] = test system: SH-SY5Y human neuroblastoma cells; test: Anti-necrotic effect: LDH release after OGD (4 h) and 24 h OGR (IR); format: cell-based; conditions: Homo sapiens, OGD 4 h + 24 h OGR (IR); for IC50: compounds 0.1 μM to 1 mM, read-out: LDH Release Inhibition IC50 ±SEM; for Emax: read-out: Maximal Inhibition Mean±SEM (LDH release)
Method: as §1
Anti-necrotic cell activity was evaluated by culturing SHSY5Y cells in 48-well dishes, in a density of 2 × 10^5 cells/well and treating them as controls or under the OGD-R24h procedure, adding the testing compounds at 0.01–1000 µM (see point 4.2.2.). Media of every well were collected in Eppendorf tubes properly labelled and stored at −20 °C until measurement (samples would be needed to measure extracellular NADH). Afterwards, each well was recharged with a 0.1 M Phosphate Buffer with 0.5% Triton X-100, pH 7.5, in order to scratch the cells from the bottom of the well. After a 13.000 rpm centrifugation, the soluble fractions are collected and labelled (samples would be essential to measure intracellular NADH). Finally, LDH activity was quantified as the degree of absorbance declined at 340, indicating the oxidation of NADH to NAD+ as described. Results are expressed as the LDH activity of the extracellular medium referred to the total LDH activity after cell lysis.

[8] = Inhibition of lipid peroxidation (ILPO), AAPH protocol with sodium linoleate; conditions: tested at 100 µM
Method: The reactants consisting of 10 µL (16 mM) sodium linoleate, 10 µL of the tested nitrones in DMSO (final concentration 100 µM), 50 µL of AAPH ([…]) as a free radical initiator, 930 µL phosphate buffer pH 7.4 (0.05 M) at 37 °C under air, were mixed and the reaction’s result (as absorbance value) was recorded at 234 nm in comparison to PBN as a reference.

[9] = test system: human neuroblastoma SH-SY5Y cells; test: Basal neurotoxicity: cell viability under basal conditions; format: cell-based
Method: as §2

SMILES | IC50 [1] [µM] | EC50 [3] [µM] | melting point | EC50 [6] [µM] | DPPH (%) [2] [%] | Emax [3] [%] | ABTS+ (%) [4] [%] | OH (%) scavenging [5] | Emax [6] [%] | IC50 [7] [µM] | ILPO (%) [8] | Emax [7] [%] | Neurotoxic effects at basal level (cell viability) [9]
Cc1c(C)c2c(c(C)c1O)CCC(C)(C(=O)O)O2 (stereo not shown) [Trolox, reference compound] |  |  |  |  |  |  | 91 | 73% |  |  | 93% |  | 
CC(Cc1ccc(O)c(O)c1)C(C)Cc1ccc(O)c(O)c1 (stereo not shown) [NDGA, Nordihydroguaiaretic acid, reference compound] |  |  |  |  | 93 |  |  |  |  |  |  |  | 
CC(=O)N[C@@H](CS)C(=O)O [NAC, N-acetyl-L-cysteine, reference compound] |  | 0.97 ± 0.16 |  | 4.18 ± 0.52 |  | 126 ± 5.19 |  |  | 131 ± 4.85 | 4.64 ± 1.05 |  | 99.1 ± 6.59 | did not show any neurotoxic effects

More lines, main results first:

IC50 [1] [µM] | EC50 [3] [µM] | melting point | EC50 [6] [µM] | SMILES | DPPH (%) [2] [%] | Emax [3] [%] | ABTS+ (%) [4] [%] | OH (%) scavenging [5] | Emax [6] [%] | IC50 [7] [µM] | ILPO (%) [8] | Emax [7] [%] | Neurotoxic effects at basal level (cell viability) [9]
33 | 0.28 ± 0.03 | 192 °C (dec.) |  | Cn1c(=O)c2ncn(C/C=[N+](/C)[O-])c2n(C)c1=O [9g] | 15 | 83 ± 1.37 | 8 | 49% | 105 ± 3.19 | 2.66 ± 1.11 |  |  | 
 | 0.32 ± 0.06 |  | 6.15 ± 0.33 | C/[N+]([O-])=C/Cn1ccc(=O)n(C/C=[N+](/C)[O-])c1=O [9h] | 82 | 127 ± 3.12 | 50 | 25% | 115 ± 6.92 | 17.6 ± 3.33 | inactive and No | 126 ± 4.27 | 
28 | 3.69 ± 0.7 | 195 °C (dec.) |  | C/[N+]([O-])=C/Cn1cc(F)c(=O)[nH]c1=O [9c] | 18 | 96.1 ± 3.03 | 5 | 99% |  | ~1 | 59% | 148 ± 8.8 | 
62.5 | 0.37 ± 0.04 |  |  | C/[N+]([O-])=C/Cn1ccc(=O)[nH]c1=O [9a] | 20 | 111 ± 1.46 | 19 | no activity and No |  | 2.57 ± 0.53 | 62% | 100 ± 4.75 | 
